US20030077709A1 (priority 2000, published 2003)

How the values were obtained:
JULF2 [1] = molecular target: T1, JULF2 (Homo sapiens, UniProt Q9NPC1); assay: Screening of compounds which inhibit cAMP inhibition action by LTB4 using JULF2 stably expressing CHO cell; type: cell-based
T1 construct: expressed in transfected cells
T1 sequence (Q9NPC1 1-358): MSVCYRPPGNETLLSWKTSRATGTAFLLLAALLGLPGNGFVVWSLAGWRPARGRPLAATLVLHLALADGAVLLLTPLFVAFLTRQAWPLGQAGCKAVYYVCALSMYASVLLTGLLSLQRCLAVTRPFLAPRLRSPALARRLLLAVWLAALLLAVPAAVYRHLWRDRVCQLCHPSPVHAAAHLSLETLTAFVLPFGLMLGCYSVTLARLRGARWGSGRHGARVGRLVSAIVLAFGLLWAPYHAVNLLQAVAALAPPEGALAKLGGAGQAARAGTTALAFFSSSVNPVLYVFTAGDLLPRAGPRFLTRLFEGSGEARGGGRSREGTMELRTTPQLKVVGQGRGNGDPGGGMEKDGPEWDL
Source text: The compound A, compound B and compound C are commercially available reagents, and compound A is on the market as a code number 0199-0032 of ChemDiv, Inc, and compound B as a code number TPB-488 of InterBioScreen. […] In this connection, the property of the compound A to show anti-inflammatory effect is also described in Biochemical Pharmacology, 51, 737-742, 1996.

JULF2 [2] = molecular target: T1, JULF2; assay: Inhibition of binding of [3H]LTB4 to JULF2 expressing cell membrane fraction
Procedure: The DNA fragment obtained in Example 1 coding for JULF2 was digested with XbaI and then cloned into pCEP4 (mfd. by Invitrogen) to be used as an expression vector (pCEP4-JULF2) for expressing JULF2. HEK293-EBNA strain was inoculated into a 15 cm Petri dish at a density of 5×10^6 cells and cultured for 1 day, and then 20 μg of pCEP4-JULF2 was subjected to gene transfer using Lipofectamine-2000 (mfd. by Gibco BRL). The gene-transferred cells were recovered 24 hours thereafter, washed, suspended in 20 mM Tris-HCl (pH 7.4)/5 mM EDTA and then homogenized using Polytron. After ultracentrifugation, the sediment was suspended in 20 mM Tris-HCl (pH 7.4) and used as a membrane fraction.
A liquid scintillation was added to the glass filter and the radioactivity was measured using a liquid scintillation counter.

[3] = test system: JULF2 stably expressing CHO cell; assay: Cell migration inhibition by JULF2 antagonist for migration of JULF2 stably expressing CHO cell toward LTB4; type: cell-based, human; conditions: compound 0.03 to 100 μM in upper layer, 100 nM LTB4 in lower layer
Procedure: (§1) A 8 μm pore polycarbonate frame filter (mfd. by Neuroprobe) was treated with 10 μg/ml fibronectin (Asahi Technoglass)/PBS at 4° C. overnight. […] After 4 hours of culturing at 37° C. in a CO2 incubator, the frame filter was fixed with methanol and stained with Diff-Quik Staining Kit (International Reagents Corporation). The upper surface of this filter (the side on which cells were set) was wiped and air-dried and then absorbance at 595 nm was measured using a plate reader (Molecular Devices). Also, in order to examine pertussis toxin (PTX) sensitivity of the JULF2 stably expressing CHO cells, JULF2 stably expressing CHO cells treated with 50 ng/ml PTX for 20 hours were subjected to a cell migration test (FIG. 2).

[4] = test system: JULF2 stably expressing CHO cells; assay: Cell migration test of JULF2 stably expressing CHO cells toward LTB4; type: cell-based, human
Procedure: as §1

[5] = test system: control vector-introduced CHO cells; assay: cAMP production test toward LTB4 in control vector-introduced CHO cells; type: cell-based; conditions: 1 μM forskolin, 0 to 1 μM LTB4
Procedure: The CHO-dhfr(−) strain was inoculated at a density of 1×10^6 cells into a 10 cm Petri dish containing αMEM (supplemented with nucleic acids) medium/10% fetal bovine serum and cultured for 1 day and then subjected to gene transfer of 8 μg of pEF-BOS-dhfr-Jul22 and pEF-BOS-dhfr (control vector) using FuGENE6 (mfd. by Boehringer Mannheim). The gene-transferred cells were recovered 24 hours thereafter, suspended in αMEM (nucleic acid-free) medium/100 nM methotrexate (mfd. by Wako Pure Chemical Industries)/10% fetal bovine serum and then serially diluted and inoculated again into the 10 cm Petri dish. Colonies formed after 2 weeks were separately isolated and used as JULF2 stably expressing CHO cells.
Each of the JULF2 stably expressing CHO cells and control vector-introduced CHO cells was inoculated into a 24 well plate at a density of 1×10^5 cells. […] After 30 minutes at 37° C., the culture supernatant was discarded and the cells were lysed using a cAMP EIA System (BIOTRAK; mfd. by Amersham) cell lysis solution.
Measurement of the produced amount of cAMP in cells under each condition was carried out using the cAMP EIA System in accordance with the attached protocol. […] On the other hand, changes in the produced amount of cAMP by the addition of LTB4 were not found in the control vector-introduced CHO cells.

[6] = test system: rat JULF2 stably expressing CHO cell; assay: Cell migration test of rat JULF2 stably expressing CHO cell toward LTB4; type: cell-based; conditions: same method of Example 6
Procedure: as §1

CCCCCCOc1ccc(C(=N)NO)cc1 [compound B, 4-hexyloxy-N-hydroxybenzenecarboximidoamide]
IC50 (JULF2 [1]): 6.7 µM | IC50 (JULF2 [2]): 5.7 µM | inhibition of cell migration toward LTB4 [3]: inhibit cell migration toward LTB4 in a dose-dependent manner

pertussis toxin [PTX]
inhibition of migration toward LTB4 by PTX pretreatment ([4]; JULF2 stably expressing CHO cells treated with 50 ng/ml PTX for 20 hours): completely inhibited

CCCCCCCCOc1ccc(C(=N)N)cc1.Cl [compound A, 4-octyloxybenzenecarboximidoamide hydrochloride]
IC50 (JULF2 [1]): 0.4 µM | IC50 (JULF2 [2]): 0.1 µM | inhibition of cell migration toward LTB4 [3]: inhibit cell migration toward LTB4 in a dose-dependent manner

CCCCC/C=C\C[C@@H](O)/C=C/C=C/C=C\[C@@H](O)CCCC(=O)O [LTB4, leukotriene B4]
changes in the produced amount of cAMP by the addition of LTB4 [5]: not found | LTB4 concentration at which the migration activity becomes maximum (bell type chemotaxis) ([4]; JULF2 stably expressing CHO cells, 4 hours at 37° C., LTB4 in lower layer): 30 nM | LTB4 concentration at which the migration activity becomes maximum (bell type chemotaxis) [6]: 100 nM
